In article PMC11364541 (Nature Communications, 2024):
pIC50: −log10 of the molar value.

Biological target: T1, SLC13A3 (Homo sapiens, UniProt Q8WWT9)
T1 sequence (Q8WWT9 1-602): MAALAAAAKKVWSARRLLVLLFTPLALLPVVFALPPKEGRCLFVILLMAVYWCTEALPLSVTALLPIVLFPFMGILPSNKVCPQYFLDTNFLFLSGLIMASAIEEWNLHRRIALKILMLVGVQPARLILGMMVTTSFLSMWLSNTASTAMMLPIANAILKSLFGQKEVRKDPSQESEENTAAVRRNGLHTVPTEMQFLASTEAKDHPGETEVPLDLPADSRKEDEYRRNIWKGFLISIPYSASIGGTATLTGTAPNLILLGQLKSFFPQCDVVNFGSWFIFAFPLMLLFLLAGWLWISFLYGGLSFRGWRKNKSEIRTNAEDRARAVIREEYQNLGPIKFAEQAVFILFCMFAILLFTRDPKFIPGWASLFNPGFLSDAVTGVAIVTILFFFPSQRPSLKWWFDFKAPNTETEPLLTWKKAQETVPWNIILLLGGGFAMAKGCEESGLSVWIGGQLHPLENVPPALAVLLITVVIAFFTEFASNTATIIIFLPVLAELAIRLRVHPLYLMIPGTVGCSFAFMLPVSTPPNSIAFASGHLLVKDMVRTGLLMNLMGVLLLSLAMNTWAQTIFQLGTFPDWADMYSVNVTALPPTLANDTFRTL
Assay: inhibition of […]-succinate uptake in SLC13A3-transfected HEK293 cells
Format: cell-based

- pIC50: 2.72
SMILES: N[C@@H](CCC(=O)N[C@@H](CS)C(=O)NCC(=O)O)C(=O)O [GSH, glutathione]
